The subject of this assay is L1210 leukemia ip in BDF1 mice, survival T/C. Nature of the assay: NCI In Vivo Anticancer Drug Screen. Data for tumor model L1210 Leukemia (intraperitoneal) in B6D2F1 (BDF1) mice. As to conditions: endpoint: mean survival time, higher = longer survival. In a few lines: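 Tumor was transplanted into mice, which were then dosed with test compound or vehicle alone. Survival was recorded for each group, and the treated figure was expressed relative to the control figure.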

Where [1] appears, read: dose: 100.0 mg/kg/injection, schedule: Q01DX009 (ip), vehicle: Klucel (hydroxypropylcellulose) (HPC).
[2] abbreviates: dose: 100.0 mg/kg/injection, schedule: Q04DX003 (ip), vehicle: Klucel (hydroxypropylcellulose) (HPC).
The mark [3] stands for this setting: dose: 200.0 mg/kg/injection, schedule: Q04DX003 (ip), vehicle: Klucel (hydroxypropylcellulose) (HPC).
[4] abbreviates: dose: 400.0 mg/kg/injection, schedule: Q04DX003 (ip), vehicle: Klucel (hydroxypropylcellulose) (HPC).
Where [5] appears, read: dose: 100.0 mg/kg/injection, schedule: Q01DX009 (ip), vehicle: saline.
The mark [6] stands for this setting: dose: 100.0 mg/kg/injection, schedule: Q04DX003 (ip), vehicle: saline.
[7] abbreviates: dose: 200.0 mg/kg/injection, schedule: Q01DX009 (ip), vehicle: saline.
[8] abbreviates: dose: 200.0 mg/kg/injection, schedule: Q04DX003 (ip), vehicle: saline.
Where [9] appears, read: dose: 400.0 mg/kg/injection, schedule: Q01DX009 (ip), vehicle: saline.
Setting [10] is: dose: 400.0 mg/kg/injection, schedule: Q04DX003 (ip), vehicle: saline.
The mark [11] stands for this setting: dose: 100.0 mg/kg/injection, schedule: Q04DX003 (ip), vehicle: alcohol.
Where [12] appears, read: dose: 100.0 mg/kg/injection, schedule: Q04DX002 (ip), vehicle: Klucel (hydroxypropylcellulose) (HPC).
Setting [13] is: dose: 200.0 mg/kg/injection, schedule: Q04DX002 (ip), vehicle: Klucel (hydroxypropylcellulose) (HPC).
Where [14] appears, read: dose: 400.0 mg/kg/injection, schedule: Q04DX002 (ip), vehicle: Klucel (hydroxypropylcellulose) (HPC).

Each structure is given as a SMILES string. Toxic doses and inconclusive results are not listed.

As to `O=S(=O)(Nc1nccs1)c1ccc(N=Nc2ccc(O)c3ncccc23)cc1`, the T/C by setting is: (dose: 200.0 mg/kg/injection, schedule: Q01DX001 (ip), vehicle: saline) 102 % of control; (dose: 400.0 mg/kg/injection, schedule: Q01DX001 (ip), vehicle: saline) 101 % of control.

On to `O=C(O)C1CCC2CCCCC2[N-]1.O=C(O)C1CCC2CCCCC2[N-]1.[Zn+2]` (stereo not given), for which the T/C is 92 % of control (dose: 25.0 mg/kg/injection, schedule: Q01DX009 (ip), vehicle: Klucel (hydroxypropylcellulose) (HPC)); 87 % of control (dose: 50.0 mg/kg/injection, schedule: Q01DX009 (ip), vehicle: Klucel (hydroxypropylcellulose) (HPC)); 86 % of control under setting [1]; 94 % of control under setting [2]; 89 % of control under setting [3]; 89 % of control under setting [4].

Regarding `CCOC(CNC(=O)CC(C)=O)OCC`, the T/C under setting [5] was 96 % of control; the T/C under setting [6] was 104 % of control; the T/C under setting [7] is 104 % of control; the T/C under setting [8] was 108 % of control; the T/C under setting [9] was 98 % of control; the T/C under setting [10] was 103 % of control.

Take `O=C(Sc1ccccc1)C1OC1c1ccccc1` (stereo not given): the T/C is, setting by setting: under setting [11], 98 % of control; (dose: 200.0 mg/kg/injection, schedule: Q04DX003 (ip), vehicle: alcohol) 92 % of control; (dose: 400.0 mg/kg/injection, schedule: Q04DX003 (ip), vehicle: alcohol) 86 % of control.

In the case of `CCOC(=O)C1(C(C)C)OC2(O)CCCCN2C1=O` (stereo not given), the T/C was 106 % of control (dose: 12.5 mg/kg/injection, schedule: Q04DX003 (ip), vehicle: alcohol); 104 % of control (dose: 25.0 mg/kg/injection, schedule: Q04DX003 (ip), vehicle: alcohol); 113 % of control (dose: 50.0 mg/kg/injection, schedule: Q04DX003 (ip), vehicle: alcohol); 101 % of control under setting [11].

Turning to `CC(=O)O[C@@H]1CC[C@]2(C)C(=CC[C@@H]3C4CC5O[C@]6(CCC(C)CN6)C(C)C5[C@]4(C)CCC32)C1` (stereo not given in full), the T/C is 93 % of control under setting [12], 89 % of control under setting [13] and 93 % of control under setting [14].

With `O=C(c1ccccc1)N1CCCCC1`, the T/C reads like this: under setting [5], 95 % of control; under setting [6], 95 % of control; under setting [7], 95 % of control; under setting [8], 94 % of control.

As to `COc1ccc(CN=C(N)CSS(=O)(=O)O)cc1`, the T/C reads like this: (dose: 12.5 mg/kg/injection, schedule: Q04DX002 (ip), vehicle: Klucel (hydroxypropylcellulose) (HPC)) 97 % of control; (dose: 25.0 mg/kg/injection, schedule: Q04DX002 (ip), vehicle: Klucel (hydroxypropylcellulose) (HPC)) 97 % of control.

`Cc1cc([N+](=O)[O-])c(C)c([N+](=O)[O-])c1Cl`: the T/C (dose: 100.0 mg/kg/injection, schedule: Q01DX001 (ip), vehicle: acetone) was 101 % of control; the T/C under setting [5] was 90 % of control; the T/C under setting [6] is 95 % of control; the T/C (dose: 200.0 mg/kg/injection, schedule: Q01DX001 (ip), vehicle: acetone) was 97 % of control; the T/C under setting [7] was 95 % of control; the T/C under setting [8] is 103 % of control. The T/C is, setting by setting: (dose: 400.0 mg/kg/injection, schedule: Q01DX001 (ip), vehicle: acetone) 95 % of control; under setting [9], 88 % of control; under setting [10], 98 % of control.

As to `COC(=O)CCSC(c1ccccc1)(c1ccccc1)c1ccccc1`, the T/C is, setting by setting: under setting [1], 104 % of control; under setting [2], 96 % of control; (dose: 200.0 mg/kg/injection, schedule: Q01DX009 (ip), vehicle: Klucel (hydroxypropylcellulose) (HPC)) 94 % of control; under setting [3], 93 % of control; (dose: 400.0 mg/kg/injection, schedule: Q01DX009 (ip), vehicle: Klucel (hydroxypropylcellulose) (HPC)) 100 % of control; under setting [4], 93 % of control.

As for `Cc1ccc(NC(=O)COc2ccccc2)c(C)c1`, the T/C under setting [12] was 107 % of control, the T/C under setting [13] is 104 % of control and the T/C under setting [14] is 100 % of control.

On to `O=C(O)c1ccc(C(=O)O)c(C(=O)O)c1.[NH-]C1CCCCC1[NH-].[Pt+2]`, for which the T/C reads like this: (dose: 1.6 mg/kg/injection, schedule: Q01DX009 (ip), vehicle: sodium bicarbonate) 198 % of control; (dose: 3.2 mg/kg/injection, schedule: Q01DX009 (ip), vehicle: sodium bicarbonate) 256 % of control; (dose: 3.3 mg/kg/injection, schedule: Q01DX009 (ip), vehicle: saline) 187 % of control; (dose: 4.8 mg/kg/injection, schedule: Q01DX009 (ip), vehicle: sodium bicarbonate) 250 % of control; (dose: 6.4 mg/kg/injection, schedule: Q01DX009 (ip), vehicle: sodium bicarbonate) 179 % of control; (dose: 6.5 mg/kg/injection, schedule: Q01DX001 (ip), vehicle: saline) 112 % of control. Also, the T/C (dose: 6.5 mg/kg/injection, schedule: Q01DX009 (ip), vehicle: saline) is 194 % of control; the T/C (dose: 13.0 mg/kg/injection, schedule: Q01DX001 (ip), vehicle: saline) was 115 % of control; the T/C (dose: 13.0 mg/kg/injection, schedule: Q01DX009 (ip), vehicle: saline) was 152 % of control; the T/C (dose: 20.0 mg/kg/injection, schedule: Q01DX001 (ip), vehicle: sodium bicarbonate) is 220 % of control; the T/C (dose: 26.0 mg/kg/injection, schedule: Q01DX009 (ip), vehicle: saline) is 102 % of control; the T/C (dose: 40.0 mg/kg/injection, schedule: Q01DX001 (ip), vehicle: sodium bicarbonate) is 205 % of control.

As for `CC1(C)CC(=O)C2=C(C1)OC1=C(C(=O)CC(C)(C)C1)C2c1ccccc1[N+](=O)[O-]`, the T/C is, setting by setting: (dose: 100.0 mg/kg/injection, schedule: Q04DX003 (ip), vehicle: saline with Tween-80) 98 % of control; (dose: 200.0 mg/kg/injection, schedule: Q04DX003 (ip), vehicle: saline with Tween-80) 88 % of control; (dose: 400.0 mg/kg/injection, schedule: Q04DX003 (ip), vehicle: saline with Tween-80) 97 % of control.

As to `C/C=C/c1ccc(OCC)c(OC)c1`, the T/C is 97 % of control under setting [6] and 98 % of control under setting [8].
